Where “and” joins values, the source holds several entries; their conditions need not be identical. Identical values can stand only once.
Assays:
HBV DNA = assay: Anti-HBV DNA Assay; type: cell-based, hepatitis B virus; conditions: for HBV DNA copies/ml: replicates, listed as HP-S2
HIV = assay: anti-HIV HOG.R5 assay; type: cell-based; conditions: 20 mcg/ml
HBsAg = assay: Anti-HBSAg Assay (Procedure B), HBsAg; type: cell-based, hepatitis B virus; design: HBsAg Ave.: unit not given here
Method: The HBV-producing human hepatoblastoma cell line, Hep G2 2.2.15 is maintained in DMEM supplemented with 10% fetal bovine serum (FBS), 2 mM glutamine, 100 units/ml penicillin, 100 μg/ml streptomycin at 37° C. under 5% CO2 in air.
Samples were dissolved in DMSO at the concentration of 20 mg/mL, then further diluted with DMEM medium to the appropriate concentration.
Hep G2 2.2.15 cells (120 μl) were seeded onto 96-well plates at a concentration of 2×10^5 cells/mL. The cells incubated for 72 h in the medium without G418, after which the test samples (120 μl) were added. Five 3-fold serial dilutions of samples were tested. PBS and 3TC (lamivudine) were included as the negative and positive controls, respectively. The treated cells were incubated at 37° C. for 9 days; with the medium with sample being changed each 3 days, after which the culture supernatant was removed for analysis of both the hepatitis B surface antigen (HBsAg) production and hepatitis B DNA expression.
The HBsAg released into the culture medium in the presence or absence of test material was assayed using the kit manufactured by Shanghai Siic Kehua Biotech Co., Ltd (Shanghai, China). This enzyme immunoassay is based on the capture of HBsAg on monoclonal antibody-coated plates. Four- and twelve-fold dilutions of all culture supernatants collected were assayed in triplicate wells of the kit plate. The percentage inhibition of HBsAg secretion in the presence of the compound was calculated against the negative control (PBS). The IC50 values, the dose that inhibited viruses by 50%, were calculated using non-linear regression analysis (percent survival versus concentration).

influenza = influenza virus entry assay; type: cell-based; design: dose or concentration left out as unconfirmed; conditions: FIG. 4
VSVG/HIV pseudovirions = assay: VSVG/HIV pseudoviral entry into HUH7 cells; type: cell-based, vesicular stomtatis virus; conditions: 100 μg/mL, FIG. 3
Marburg = type: cell-based; design: dose or concentration left out as unconfirmed; conditions: FIG. 4
Hep G2.2.15 cells = assay: % Cell Viability in Anti-HBSAg Assay (Procedure A); type: cell-based, human; conditions: 50 μg/ml
Method: (§1) The HBV-producing human hepatoblastoma cell line, Hep G2.2.15 was maintained in DMEM supplemented with 10% fetal bovine serum (FBS), 2 mM glutamine, 100 units/ml penicillin, 100 μg/ml streptomycin and 380 μg/ml gentamicin sulfate (G418) at 37° C. under 5% CO2 in air. The Hep G2 parental cells were grown under identical conditions in MEM with Earle's salts without G418.
(§2) Hep G2.2.15 cells (190 μl) were seeded onto microtiter plates at a concentration of 20×10^4 cells/ml. The cells incubated overnight in medium without G418 after which the compound compositions (10 μl) were added. Five 2-fold serial dilutions of extracts or fractions were tested starting at 200 μg/ml final culture concentration. PBS and 3TC (lamivudine) were included as the negative and positive controls, respectively. The treated cells were incubated at 37° C. for 4 days, after which the hepatitis B surface antigen (HBsAg) production in culture supernatants was assayed. The HBsAg released into the culture medium in the presence or absence of test samples was assayed using the BIO-RAD Genetic Systems HBsAg EIA 3.0 kit (Bio-Rad, Redmond, Wash.). This enzyme immunoassay is based on the capture of HBsAg on monoclonal antibody-coated plates. Four- and twelve-fold dilutions of all culture supernatants collected were assayed in triplicate wells of the EIA plate. The percentage inhibition of HBsAg secretion in the presence of the plant samples was calculated against the negative control (PBS).

Ebola = type: cell-based; conditions: 50 mg·mL; FIG. 4
HBeAg = assay: Anti-HBSAg Assay (Procedure B), HBeAg; type: cell-based, hepatitis B virus; design: HBeAg Ave: unit not given here
[1] = tested on: hepatitis B surface antigen (HBsAg) production; assay: Anti-HBSAg Assay (Procedure A); type: cell-based, hepatitis B virus; conditions: 50 μg/ml
Method: as §1, §2

COC(=O)C1=COC(O)C2C1C(O)C(O)C2(C)O (mixture of isomers) [lamiridosin]
HBV DNA Average (HBV DNA; 9.37 μg/ml): 9.81 × 10^5 copies/ml | HBV DNA Inhibit (HBV DNA; 9.37 μg/ml): 0.00% | HBV DNA copies/ml (HBV DNA; 9.37 μg/ml): 1.12E+6 copies/ml and 1.01E+06 copies/ml and 1.22E+06 copies/ml | HBV DNA Average (HBV DNA; 18.75 μg/ml): 8.90 × 10^5 copies/ml | HBV DNA Inhibit (HBV DNA; 18.75 μg/ml): 23.90% | HBV DNA copies/ml (HBV DNA; 18.75 μg/ml): 8.22E+05 copies/ml and 8.73E+05 copies/ml and 9.76E+05 copies/ml | HBV DNA Average (HBV DNA; 37.5 μg/ml): 6.49 × 10^5 copies/ml | HBV DNA Inhibit (HBV DNA; 37.5 μg/ml): 44.5% | HBV DNA copies/ml (HBV DNA; 37.5 μg/ml): 5.06E+05 copies/ml and 8.57E+05 copies/ml and 5.85E+05 copies/ml | activity against HIV (HOG.R5 assay) (HIV): inactive | HBsAg Ave. (HBsAg; 9.375 μg/mL): 1.152 | HBsAg Inhibition % (HBsAg; 9.375 μg/mL): 0% | HBsAg OD1 (HBsAg; 9.375 μg/mL): 1.080 | HBsAg OD2 (HBsAg; 9.375 μg/mL): 1.220 | HBsAg OD3 (HBsAg; 9.375 μg/mL): 1.157 | HBsAg Ave. (HBsAg; 18.75 μg/mL): 1.140 | HBsAg Inhibition % (HBsAg; 18.75 μg/mL): 0% | HBsAg OD1 (HBsAg; 18.75 μg/mL): 1.208 | HBsAg OD2 (HBsAg; 18.75 μg/mL): 1.105 | HBsAg OD3 (HBsAg; 18.75 μg/mL): 1.107 | HBsAg Ave. (HBsAg; 37.5 μg/mL): 0.765 | HBsAg Inhibition % (HBsAg; 37.5 μg/mL): 29.4% | HBsAg OD1 (HBsAg; 37.5 μg/mL): 0.797 | HBsAg OD2 (HBsAg; 37.5 μg/mL): 0.744 | HBsAg OD3 (HBsAg; 37.5 μg/mL): 0.755 | anti-HBSAg assay activity (in words) (HBsAg; 37.5 μg/ml, Table 2): inactive | activity against influenza virus entry (influenza): inactive | VSVG/HIV pseudoviral entry blocking (VSVG/HIV pseudovirions): does not block | activity against Marburg virus entry (Marburg): inactive | % Cell Viability (Hep G2.2.15 cells): 100% | activity against Ebola virus entry (Ebola): inactive | HBeAg Ave (HBeAg; 9.375 μg/mL): 1.327 | HBeAg Inhibition % (HBeAg; 9.375 μg/mL): 2.7% | HBeAg OD1 (HBeAg; 9.375 μg/mL): 1.455 | HBeAg OD2 (HBeAg; 9.375 μg/mL): 1.416 | HBeAg OD3 (HBeAg; 9.375 μg/mL): 1.109 | HBeAg Ave (HBeAg; 18.75 μg/mL): 1.244 | HBeAg Inhibition % (HBeAg; 18.75 μg/mL): 8.5% | HBeAg OD1 (HBeAg; 18.75 μg/mL): 1.151 | HBeAg OD2 (HBeAg; 18.75 μg/mL): 1.171 | HBeAg OD3 (HBeAg; 18.75 μg/mL): 1.410 | HBeAg Ave (HBeAg; 37.5 μg/mL): 1.195 | HBeAg Inhibition % (HBeAg; 37.5 μg/mL): 12.1% | HBeAg OD1 (HBeAg; 37.5 μg/mL): 1.073 | HBeAg OD2 (HBeAg; 37.5 μg/mL): 1.275 | HBeAg OD3 (HBeAg; 37.5 μg/mL): 1.238 | % Control HBSAg [1]: 100% | % Inhibition [1]: 0% | anti-HBSAg assay activity (in words) ([1]; Table 1): inactive

From patent US20080319042A1, “Compositions and methods for treatment of liver disease” (priority 2007, published 2008)
